Columns and labels:
[1] = tested on: P. aeruginosa DR4877/07; assay type: cell-based; conditions: for FICI of B2088-antibiotic combination: lowest FICI reported, two independent duplicates
Description: The synergism between peptides with conventional antibiotics was evaluated using checkerboard assays. For a comparison polymyxin B (PMB) was also tested against each antibiotic. From their stock solutions, two-fold dilutions of each antibiotic and peptide to 1× MIC were prepared in MHB. 50 μl of each peptide concentration was added into the wells of a 96-well polystyrene plates (SPL Life Sciences Co. Ltd, Korea) in a horizontal orientation and the same volume of each antibiotic concentration were then added in a vertical orientation. Bacterial suspensions were prepared in MHB to yield final cell density of ~10^6 CFU/ml and 100 μl of bacterial suspension was mixed with each peptide-antibiotic combinations. This procedure was repeated for wells containing 200 μl of peptide alone and 200 μl of antibiotic alone in various concentrations. The positive and negative controls contained 200 μl of inoculum and MHB alone respectively. The plates were incubated at 37 °C for 24 hours and the optical density at 600 nm (OD600) was monitored as before. Fractional inhibitory concentration index (FICI) for all antibiotic- peptide combinations was calculated through the summation of (MIC of peptide in the combination/ MIC of peptide alone) and (MIC of antibiotics in combination/MIC of antibiotic alone). The experiments were performed in two independent duplicates and the combinations that gave the lowest FICI values was reported.

[2] = tested on: P. aeruginosa DR4877/07; test: microbe, parasite or virus in culture; conditions: for MIC: Pseudomonas aeruginosa, DR4877/07, 24 h, read-out: MIC of antibiotics
Description: MIC of each peptide was determined using the microdilution method in a 96 well microtitre plates (SPL Life Sciences Co., Ltd, Korea). Two-fold serial dilutions of each peptide in Mueller-Hinton Broth (MHB) was prepared from a 1 mg/ml stock solution of the peptide in the same broth, to obtain a final concentration in the range of 0.0976–50 μg/ml in each well. Bacterial suspensions (P. aeruginosa ATCC 27853, P. aeruginosa 4877, P. aeruginosa 23155, K. pneumoniae ATCC 10031 and K. pneumoniae 4299) were prepared by suspending the overnight cultured bacteria in saline and adjusting the inoculum to ~10^8 colony forming units (CFU) per ml. A further 150-fold dilution was then prepared in MHB to achieve a final cell density of 10^5–10^6 CFU/ml. In each well, 100 μl of inoculum was mixed with the equal volume of peptides at their 2× concentration. Positive and negative controls contained 200 μl of inoculum (without any peptide) and broth alone (no peptide/inoculum) respectively. Another negative control in which MHB containing 200 μl of peptide alone in its highest concentration tested (50 μg/ml) was also included to ensure that the optical density measured in the test wells was not due to turbidity of the peptides in solution. The 96 well polystyrene plates were then incubated at 37 °C for 24 h and the optical density at 600 nm (OD600) was measured every 30 min continuously using a TECAN microplate reader (TECAN Infinite 200, Austria).

[3] = tested on: LPS (E. coli serotype 055:B5); test: BODIPY TR cadaverine (BC) displacement assay with LPS; assay type: binding
Description: To investigate the interaction of B2088 with LPS, we performed the BODIPY TR cadaverine (BC) displacement assay reported by Wood et al.[22]. The probe binds to the lipid A part of the LPS with moderate affinity and can be displaced by putative LPS-binding molecules. The method was used to probe the affinity of polycationic molecules and LPS binding proteins. First, we determined the affinity of polymyxin B (PMB), a lipopeptide cyclic antibiotic which has a high affinity for LPS. […] Figure 1a,b show the concentration-dependent displacement of LPS/lipid A-bound BC upon addition of B2088. […] To confirm the importance of branching, we determined the BC50 for a linear retrodimer having the amino acid sequence, […] (Fig. 1d). The determined value was 2-fold higher (3.9 ± 0.1 μM) than that of B2088, confirming a weaker affinity of the linear peptide.
The BC displacement assay was used to determine the ability of each peptide to bind to LPS. The florescent probe, BODIPY TR cadaverine (BC) was purchased from Molecular Probes/ Invitrogen (USA). A stock solution containing 1 mg/ml of LPS (E. coli serotype 055:B5) was prepared in dimethyl sulfoxide (DMSO) and another stock solution containing 1 mg/ml of BC dye was prepared in 5 mM HEPES buffer (pH 7.4). The optimum saturation concentration of BC:LPS ratio was standardized following the protocol provided by Wood et al. (22). From the BC stock, 240 μl was mixed with 500 μl from the LPS stock solution in 5 mM HEPES buffer (pH 7.4) to prepare 20 ml of BC:LPS mixture. Two-fold serial dilutions of each peptide in 5 mM HEPES buffer (pH 7.4) was prepared from their 1 mg/ml stock solutions to obtain a final range of 0.02–25.6 μM. The BC:LPS mixture was added to 100 μl of each peptide congener in a 1:1 ratio in each well of a 96-well black Costar™ polystyrene microtitre plate (Corning Incorporated, NY, USA). The maximum fluorescence intensity (Fmax) was determined using a mixture containing 100 μl PMB (50 μg/ml) and 100 μl BC:LPS solution, as PMB is considered the ‘gold standard’ for LPS-sequestering agents. The minimum fluorescence intensity (F0) was measured using 200 μl of BC:LPS mixture to determine the background noise for this experiment. Fluorescence measurements for each peptide (F) were determined using a microplate reader (Model: TECAN Infinite 200, Austria) with excitation and emission wavelengths set at 580 nm and 620 nm respectively. The percentage of BC displacement was then calculated using the formula: […]
The experiments were performed in duplicates and the effective concentration required for 50% displacement of BC dye (ED50) from LPS with respect to PMB was determined by curve fitting using Graphpad Prism (CA, USA). A higher ED50 value for the peptide indicates a lower affinity for LPS.

[4] = MIC of B2088 6.25 μg/ml, MHB, ~10^6 CFU/ml, 37 °C, 24 h

| MIC of antibiotics in the presence of ¼× sub-MIC of B2088 [1, 4] [µg/mL] | MIC of antibiotics in the presence of ½× sub-MIC of B2088 [1, 4] [µg/mL] | MIC [2] [µg/mL] | Compound | FICI of B2088-antibiotic combination [1] | further results |
| --- | --- | --- | --- | --- | --- |
|  | 12.5 | 50 | C[C@H]1COc2c(N3CCN(C)CC3)c(F)cc3c(=O)c(C(=O)O)cn1c23 [Levofloxacin, reference compound] | 0.75 |  |
|  | 50 | 100 | CC[C@H]1OC(=O)[C@H](C)[C@@H](O[C@H]2C[C@@](C)(OC)[C@@H](O)[C@H](C)O2)[C@H](C)[C@@H](O[C@@H]2O[C@H](C)C[C@H](N(C)C)[C@H]2O)[C@](C)(O)C[C@@H](C)C(=O)[C@H](C)[C@@H](O)[C@]1(C)O [Erythromycin, reference compound] | 1.0 |  |
|  |  | 12.5 | O=C(O)c1cn(C2CC2)c2cc(N3CCNCC3)c(F)cc2c1=O [Ciprofloxacin] |  |  |
| 100 | 50 | 200 | [H]/N=C(/N)N[C@H]1[C@H](O)[C@@H](O)[C@H](O[C@@H]2O[C@@H](C)[C@](O)(C=O)[C@H]2O[C@@H]2O[C@@H](CO)[C@H](O)[C@@H](O)[C@@H]2NC)[C@@H](N/C(N)=N\[H])[C@@H]1O [Streptomycin, reference compound] | 0.75 | MIC of antibiotics in the presence of ⅛× sub-MIC of B2088 [1, 4]: 100 µg/mL |
| 0.195 | 0.0975 | 0.78 | C[C@@H](O)[C@H]1C(=O)N2C(C(=O)O)=C(SCCN=CN)C[C@H]12 [Imipenem, reference compound] |  |  |
|  | 400 | 3200 | CCn1cc(C(=O)O)c(=O)c2ccc(C)nc21 [Nalidixic acid, reference compound] | 0.63 | FICI of polymyxin B-antibiotic combination [1]: 1.0 |
|  |  |  | RGRKVVRRKKRRVVKRGR [linear retrodimer] |  | FICI with chloramphenicol ([1]; additive effect): 1; FICI with gatifloxacin ([1]; additive effect): 1; FICI with tobramycin ([1]; additive effect): 1; ED50 (50% displacement of BC dye from LPS; also called BC50) ([3]; 5 mM HEPES pH 7.4, fluorescence ex 580/em 620 nm, with respect to PMB, duplicates): 3.9 ± 0.1 µM; BC50 fold higher than that of B2088 ([3]; LPS-bound BC): 2 fold |

| Compound | MIC of antibiotics in the presence of ¼× sub-MIC of B2088 [1, 4] [µg/mL] | MIC of antibiotics in the presence of ½× sub-MIC of B2088 [1, 4] [µg/mL] | MIC [2] [µg/mL] | FICI of B2088-antibiotic combination [1] | further results |
| --- | --- | --- | --- | --- | --- |
| NC[C@H]1O[C@H](O[C@H]2[C@H](O)[C@@H](O[C@H]3O[C@H](CO)[C@@H](O)[C@H](N)[C@H]3O)[C@H](N)C[C@@H]2N)[C@H](O)[C@@H](O)[C@@H]1O [Kanamycin, reference compound] | 1600 | 800 |  | 0.75 | Fold decrease in the MIC of antibiotics at sub-lethal/sub-inhibitory concentrations of B2088 ([1]; multidrug resistant P. aeruginosa 4877): 4 fold; MIC of antibiotics ([2]; antibiotic alone, MHB, 37 °C, 24 h, OD600): 3200 µg/mL |
